Reference: patent publication US20100331189A1, “Plant Growth Promoter Utilizing Potato Cyst Nematode” (TOKAI UNIVERSITY EDUCATIONAL SYSTEM, priority 2008, published 2010)

Assays:
beets [1] = assay: Beet cultivation after treatments of farmland sections (2008); type: in vivo; settings: for Average weight / Weight of the largest beet: sprayed once before planting; for growth promotion / enlargement of a beet (in words): results of beet cultivation of Table 8
Method: [table] The beets were cultivated under the conditions that the width of a ridge was 69 cm and the distance between beets was 30 cm. […] Then the beets were cultivated until Oct. 8, 2008 and harvested. After the stems and leaves of the harvested beets were removed, the weight of the beets was measured.

[2] = Polarity and solubility in water; type: physicochemical; settings: research conducted by the inventors
Excerpt: Thus, the inventors of the present invention have focused on an ecological method. The ecological method is an indirect method in which the eggs of PCNs are forcedly hatched in some way, and then the hatched larvae are made to starve to death or destroyed using a typical agricultural chemical, which results in the prevention of the damage caused by the PCNs. It has been known for a long time that PCNs hatch when exposed to a substance secreted from the host plants, and there has been conducted a study for identifying a hatching-activating substance and isolating it from the secretory substance. Patent Document 1 discloses Solanoeclepin A as the hatching-activating substance.

PCNs = assay: PCN control at a site where a potato had been cultivated: nematode density after spraying; type: in vivo, potato cyst nematodes; settings: sprayed amount 9.0 g/m^2; soil had 2000 to 5000 PCNs per 20 g
Excerpt: After the chemical agents were sprayed, all the cysts in 20 g of air-dried soil were gathered and the total number of eggs and second-generation larvae in the cysts was obtained.

[3] = test system: eggs of potato cyst nematodes; assay: Accelerated hatching effect of aqueous fatty acid dialkanolamide solution; type: in vivo; settings: 1000-fold diluted aqueous solution; water 5.0%
Method: The accelerated hatching effect of an aqueous fatty acid dialkanolamide solution for the eggs of potato cyst nematodes was measured. […] It is believed that the fatty acid dialkanolamide has a function of breaking the eggshell of PCNs and thus the eggs of PCNs are forcedly hatched.

beets [4] = assay: Beet cultivation in PCN-contaminated farmland after spraying around the roots (2007); type: in vivo; settings: cultivated 112 days; for Average weight of three beets other than the largest beet / Weight of the largest beet: PCN-contaminated farmland; for Sugar content: saccharimeter
Method: A farmland (Fujimi, Kutchan-cho, Hokkaido) contaminated by PCNs was examined in advance.
In that farmland, about […] beets per 1 m^2 were cultivated under the conditions that the width of a ridge was 69 cm and the distance between beets was 30 cm. […] The amount sprayed was changed to three levels, 1.8, 5.5, and 9.0 (g/m^2), and each chemical agent having the above-described amount was dissolved in 5 liters of water to obtain a spraying solution. Subsequently, the beets were cultivated for 112 days and the grown beets were harvested. The weight (kg) of the largest beet, the average weight (kg) of three beets other than the largest beet, and the sugar content (%) were measured. […] The sugar content (%) was measured with a saccharimeter (MASTER-M model 2313 available from ATAGO Co., Ltd.). […]
The mixed chemical agent contained 6% by mass of coconut oil fatty acid diethanolamide and 0.6% by mass of polyethylene glycol.

PCN = PCN density in treated farmland sections (2008); type: in vivo, potato cyst nematodes
[5] = 260 mg in 100 ml of water per two beets
[6] = 260 mg in 100 ml of water per single beet

Structure (SMILES) | growth promotion / enlargement of a beet (in words) (beets [1]) | Average weight of three beets other than the largest beet (beets [4]; sprayed amount 1.8 g/m^2, once) [kg] | Weight of the largest beet (beets [4]; sprayed amount 1.8 g/m^2, once) [kg] | Sugar content (beets [4]; sprayed amount 1.8 g/m^2, once) [%] | Average weight of three beets other than the largest beet (beets [4]; sprayed amount 5.5 g/m^2, once) [kg] | Weight of the largest beet (beets [4]; sprayed amount 5.5 g/m^2, once) [kg] | Sugar content (beets [4]; sprayed amount 5.5 g/m^2, once) [%] | Average weight of three beets other than the largest beet (beets [4]; sprayed amount 9.0 g/m^2, once) [kg] | Weight of the largest beet (beets [4]; sprayed amount 9.0 g/m^2, once) [kg] | Sugar content (beets [4]; sprayed amount 9.0 g/m^2, once) [%] | other results
CC(=O)NCCO [compound 13, acetic acid monoethanolamide] | poor effect of growth promotion |  |  |  |  |  |  |  |  |  | Average weight (beets [1]; [5]): 1.40 kg; Weight of the largest beet (beets [1]; [5]): 1.40 kg
COC1=C2C(C)(C)[C@H]3O[C@@]2(CC3=O)[C@@H](O)C2=C(C1=O)[C@@]13C(=O)[C@@]([C@@H]4C[C@H]4C(=O)O)(C[C@@H]1O)[C@]3(C)CC2 [Solanoeclepin A] |  |  |  |  |  |  |  |  |  |  | solubility in water [2]: poor solubility in water
CCCCCCCCCC(=O)N(CCO)CCO [Example 4, decanoic acid diethanolamide] |  | 1.86 | 2.20 | 21.20 | 1.92 | 2.35 | 20.00 | 1.62 | 2.15 | 23.40 | Nematode density (total number of eggs and second-generation larvae in the cysts) (PCNs): 765 /20 g of air-dried soil; hatching ratio [3]: 23.8%
CCCCCCCCCCCCCCCCCC(=O)N(CCO)CCO [Example 7, octadecanoic acid diethanolamide] |  | 1.48 | 2.05 | 20.20 | 1.65 | 1.95 | 20.20 | 1.85 | 2.30 | 21.00 | Nematode density (total number of eggs and second-generation larvae in the cysts) (PCNs): 540 /20 g of air-dried soil
CCCCCC(=O)N(CCO)CCO [Example 15, hexanoic acid diethanolamide] | achieves the enlargement of a beet |  |  |  |  |  |  |  |  |  | Average weight (beets [1]; [6]): 1.55 kg; Weight of the largest beet (beets [1]; [6]): 2.10 kg; PCN density (PCN; 260 mg in 100 ml of water sprayed around the area of a single beet): 600 /20 g of air-dried soil; effect on PCN density (in words) (PCN; section 2-1 compared with section 1-1): decreases PCN density
CC(=O)N(CCO)CCO [Example 1, acetic acid diethanolamide] |  | 1.63 | 2.85 | 19.80 | 1.68 | 2.53 | 20.10 | 1.40 | 1.90 | 19.90 | 
CCCCCCCCCC(=O)NCCO [compound 14, decanoic acid monoethanolamide] | poor effect of growth promotion |  |  |  |  |  |  |  |  |  | Average weight (beets [1]; [5]): 1.10 kg; Weight of the largest beet (beets [1]; [5]): 1.80 kg
